Data set [1] is described as follows: Lipophilicity, log P of the compound. The format is physicochemical. The following applies: octanol/water.
The nature of data set [2]: Apparent permeability in human Caco2 cells. The format is ADME, cell-based. The following applies: Caco-2. (In general: Caco-2 cells form a polarised layer with tight junctions and transporters.)

Among the data in ChEMBL document CHEMBL4261507, “Pyrazolo[3,4-d]pyrimidines as sigma-1 receptor ligands for the treatment of pain. Part 1: 4-acylamino derivatives” (Medchemcomm, 2017) are logP and Papp values, retold here.

By logP is commonly meant a log measure of how a compound divides between an organic and an aqueous phase. High values mean a more lipophilic compound, low ones a more hydrophilic compound. For orientation: Papp means a coefficient for how fast a substance crosses the barrier.

Compound `CC(C)(C)C(=O)Nc1ncnc2c1cnn2CCN1CCCCC1` displayed a logP in data set [1] of 2.6. Further, the Papp in data set [2] was determined as 39 ×10⁻⁶ cm/s.
